Assay results taken from ChEMBL document CHEMBL4610010, “Metachromins X and Y from a marine sponge Spongia sp. and their effects on cell cycle progression” (Bioorg Med Chem, 2020).
Where a name gives a salt, the structure may show the parent alone. Activity calls are given as the source filed them. The rule behind the calls is not given here.

Tests used:
[1] = tested on: HeLa/Fucci2; assay: Antiproliferative activity against human HeLa/Fucci2 cells assessed as inhibition of cell viability incubated for 3 days by MTT assay; assay type: functional, cell-based; conditions: HeLa/Fucci2, 72 h
[2] = tested on: HeLa/Fucci2; assay: Induction of cell cycle arrest in human HeLa/Fucci2 cells assessed as accumulation at S/G2/M phase at 56 uM measured after 68 hrs by Time-lapse imaging analysis based fluorescent microscopic method; assay type: functional
[3] = tested on: HeLa/Fucci2; assay: Induction of cell cycle arrest in human HeLa/Fucci2 cells assessed as accumulation at G1 phase at 56 uM incubated for 3 days by flow cytometric analysis (reference value: 39.4%); assay type: functional
[4] = tested on: HeLa/Fucci2; assay: Induction of cell cycle arrest in human HeLa/Fucci2 cells assessed as accumulation at G1/S phase at 56 uM incubated for 3 days by flow cytometric analysis (reference value: 40.2%); assay type: functional
[5] = tested on: HeLa/Fucci2; assay: Induction of cell cycle arrest in human HeLa/Fucci2 cells assessed as accumulation at S/G2/M phase at 56 uM incubated for 3 days by flow cytometric analysis (reference value: 20.4%); assay type: functional

Compound	IC50 [1] [µM]	Activity [2]	Activity [3] [%]	Activity [4] [%]	Activity [5] [%]
COC1=CC(=O)C(O)=C(C/C=C(\C)CCC2=C(C)CCCC2(C)C)C1=O	64	Active	7.6	4.3	88
COC1=CC(=O)C2=C(C=CC(C)(CC[C@@]3(C)CCC=C(C)[C@H]3C)O2)C1=O (some centres not stated)	73	inactive	–	–	–
COc1cccc2c1C(=O)c1c(O)c3c(c(O)c1C2=O)C[C@@](O)(C(=O)CO)C[C@@H]3O[C@H]1C[C@H](N)[C@H](O)[C@H](C)O1 [DOXORUBICIN HYDROCHLORIDE]	2	–	–	–	–
COC1=CC(=O)C2=C(C=CC(C)(CCC3=C(C)CCCC3(C)C)O2)C1=O (racemic)	76	inactive	21.5	23.4	55
COc1cc(OC)c2c(c1O)C=C[C@](C)(CC[C@@]1(C)CCC=C(C)[C@H]1C)O2	89	inactive	–	–	–
COC1=CC(=O)C(O)=C(C/C=C(\C)CC[C@@]2(C)CCC=C(C)[C@H]2C)C1=O [METACHROMIN C]	53	Active	–	–	–
